# Experimental data published in US20100063047A1 (KALYPSYS, INC., priority 2008, published 2010).
# pEC50: −log10 of the molar value.
# Biological target: T1, human H1 (Homo sapiens, UniProt P35367)
# T1 construct: host or cells: CHO-K1, also expressing mitochondrion-targeted aequorin
# Experiment: In vitro histamine H1 receptor cell-based aequorin bioluminescence antagonist assay
# Settings: not given
# Protocol: In vitro Histamine Receptor Cell-Based Assays
# The cell-based assays utilize an aequorin dependent bioluminescence signal. Doubly-transfected, stable CHO—K1 cell lines expressing human H1 or H4, mitochondrion-targeted aequorin, and (H4 only) human G protein Gα16 are obtained from Perkin-Elmer. Cells are maintained in F12 (Ham's) growth medium, containing 10% (vol./vol.) fetal bovine serum, penicillin (100 IU/mL), streptomycin (0.1 mg/mL), zeocin (0.25 mg/mL) and geneticin (0.40 mg/mL). Cell media components are from Invitrogen, Inc. One day prior to assay, the growth medium is replaced with the same, excluding zeocin and geneticin.
# For assay preparation, growth medium is aspirated, and cells are rinsed with calcium-free, magnesium-free phosphate-buffered saline, followed by two to three minute incubation in Versene (Invitrogen, Inc.) at 37° C. Assay medium (DMEM:F12 [50:50], phenol-red free, containing 1 mg/mL protease-free bovine serum albumin) is added to collect the released cells, which are then centrifuged. The cell pellet is re-suspended in assay medium, centrifuged once more, and re-suspended in assay medium to a final density of 5×10^6 cells/mL. Coelenterazine-h dye (500 μM in ethanol) is added to a final concentration of 5 μM, and mixed immediately. The conical tube containing the cells is then wrapped with foil to protect the light-sensitive dye. The cells are incubated for four hours further at room temperature (approximately 21° C.) with end-over-end rotation to keep them in suspension.
# Just before assay, the dye-loaded cells are diluted to 0.75×10^6 cells/mL (H1 receptor) or 1.5×10^6 cells/mL (H4 receptor) with additional assay medium. Cells are dispensed to 1536 well micro-titer plates at 3 μL/well. To assay receptor antagonism, 60 nl of 100× concentration test compounds in 100% dimethyl sulfoxide (DMSO) are dispensed to the wells, one compound per well, by passive pin transfer, and the plates are incubated for 15 minutes at room temperature. […] The pipette dispenses 3 μL/well of agonist (histamine, at twice the final concentration, where final concentration is a previously determined EC80) in assay medium, with concurrent bioluminescence detection. Agonist activity of test compounds is excluded by separate assays that measure response to test compounds immediately, without added histamine agonist.
# CCD image capture on the Lumilux includes a 5 second baseline read prior to agonist addition, and generally a 40 second read per plate after agonist addition. A decrease in bioluminescence signal (measured either as area-under-the-curve, or maximum signal amplitude minus minimum signal amplitude) correlates with receptor antagonism in a dose dependent manner. The negative control is DMSO lacking any test compound. For antagonist assays, the positive controls are diphenhydramine (2-Diphenylmethoxy-N,N-dimethylethylamine, 10 μM final concentration, H1 receptor) or JNJ7777120 (1-[(5-Chloro-1H-indol-2-yl)carbonyl]-4-methyl-piperazine, 10 μM final concentration, H4 receptor). Efficacy is measured as a percentage of positive control activity.
# T1 sequence (P35367 whole entry): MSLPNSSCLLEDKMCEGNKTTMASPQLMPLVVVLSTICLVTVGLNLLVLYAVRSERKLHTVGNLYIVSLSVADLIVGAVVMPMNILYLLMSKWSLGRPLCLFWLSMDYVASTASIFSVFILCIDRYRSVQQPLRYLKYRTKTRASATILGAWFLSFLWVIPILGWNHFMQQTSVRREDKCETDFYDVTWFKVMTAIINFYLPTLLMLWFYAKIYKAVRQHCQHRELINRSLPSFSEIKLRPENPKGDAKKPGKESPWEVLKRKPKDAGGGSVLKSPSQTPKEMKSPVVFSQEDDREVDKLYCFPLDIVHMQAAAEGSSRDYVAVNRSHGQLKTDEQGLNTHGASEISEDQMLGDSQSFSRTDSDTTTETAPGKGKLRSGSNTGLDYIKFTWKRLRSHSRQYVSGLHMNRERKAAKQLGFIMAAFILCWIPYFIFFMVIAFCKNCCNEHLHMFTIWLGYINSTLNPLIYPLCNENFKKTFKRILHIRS
row,Structure (SMILES),pEC50
1,"COc1ccc(OC)c(CCNc2ncnc3scc(C)c23)c1 [Example 169, N-[2-(2,5-dimethoxyphenyl)ethyl]-5-methylthieno[2,3-d]pyrimidin-4-amine]",< 5.00

# Same assay, conditions: CHO-K1 cells expressing human H1 and aequorin; histamine at EC80; read-out: H1 Antagonist EC50
row,Structure (SMILES),pEC50
1,"Cc1csc2ncnc(NC3CCCCC3C)c12 (centres unmarked) [Example 91, 5-methyl-N-(2-methylcyclohexyl)thieno[2,3-d]pyrimidin-4-amine]",< 5.00
2,"CC(C)(CNc1ncnc2sccc12)N1CCOCC1 [Example 308, N-(2-methyl-2-morpholinopropyl)thieno[2,3-d]pyrimidin-4-amine]",< 5.00
3,"Cc1csc2ncnc(NCc3ccc(C(C)(C)C)cc3)c12 [Example 156, N-[(4-tert-butylphenyl)methyl]-5-methylthieno[2,3-d]pyrimidin-4-amine]",< 5.00
4,"COc1ccc(CNc2ncnc3scc(C)c23)cc1 [Example 124, N-[(4-methoxyphenyl)methyl]-5-methylthieno[2,3-d]pyrimidin-4-amine]",< 5.00
5,"Cc1csc2ncnc(N[C@@H](C)c3ccccc3)c12 [Example 96, 5-methyl-N-[(1S)-1-phenylethyl]thieno[2,3-d]pyrimidin-4-amine]",< 5.00
6,"Cc1csc2ncnc(N3CCSC3)c12 [Example 189, 3-{5-methylthieno[2,3-d]pyrimidin-4-yl}-1,3-thiazolidine]",< 5.00
7,"Cc1csc2ncnc(CCCc3ccc(Cl)cc3)c12 [Example 23, 4-(3-(4-chlorophenyl)propyl)-5-methylthieno[2,3-d]pyrimidine]",< 5.00
8,"CCC1CCC(Nc2ncnc3scc(C)c23)CC1 (centres unmarked) [Example 22, (4-Ethylcyclohexyl)(5-methylthiopheno[3,2-e]pyrimidin-4-yl)amine]",< 5.00
9,"Cc1ccc(C)c(CNc2ncnc3scc(C)c23)c1 [Example 113, N-[(2,5-dimethylphenyl)methyl]-5-methylthieno[2,3-d]pyrimidin-4-amine]",< 5.00
10,Cc1csc2ncnc(NCCc3cccc(F)c3)c12 [Example 18],< 5.00
11,"COC(=O)C1CCN(c2ncnc3scc(C)c23)CC1 [Example 224, methyl 1-{5-methylthieno[2,3-d]pyrimidin-4-yl}piperidine-4-carboxylate]",< 5.00
12,"Cc1csc2ncnc(NC3CCN(Cc4ccccc4)C3)c12 (centres unmarked) [Example 168, 1-benzyl-N-{5-methylthieno[2,3-d]pyrimidin-4-yl}pyrrolidin-3-amine]",< 5.00
13,"OCCCCNc1ncnc2scc(-c3ccccc3)c12 [Example 312, 4-(5-phenylthieno[2,3-d]pyrimidin-4-ylamino)butan-1-ol]",< 5.00
14,"COc1cccc(CCNc2ncnc3scc(C)c23)c1 [Example 16, [2-(3-Methoxyphenyl)ethyl](5-methylthiopheno[3,2-e]pyrimidin-4-yl)amine]",< 5.00
15,"Cc1ccc(CNc2ncnc3scc(C)c23)cc1 [Example 100, 5-methyl-N-[(4-methylphenyl)methyl]thieno[2,3-d]pyrimidin-4-amine]",< 5.00
16,"Cc1csc2ncnc(NCc3ccc(Cl)c(Cl)c3)c12 [Example 166, N-[(3,4-dichlorophenyl)methyl]-5-methylthieno[2,3-d]pyrimidin-4-amine]",< 5.00
17,"Cc1csc2ncnc(NC3CCc4ccccc43)c12 (centres unmarked) [Example 111, N-(2,3-dihydro-1H-inden-1-yl)-5-methylthieno[2,3-d]pyrimidin-4-amine]",< 5.00
18,"Fc1ccccc1CCNc1ncnc2sc3c(c12)CCCC3 [Example 42, N-[2-(2-fluorophenyl)ethyl]-8-thia-4,6-diazatricyclo[7.4.0.0^{2,7}]trideca-1(9),2(7),3,5-tetraen-3-amine]",< 5.00
19,"CC(=O)c1c(C)[nH]c(C(=O)CSc2ncnc3sc(C)c(C)c23)c1C [Example 304, 1-(4-acetyl-3,5-dimethyl-1H-pyrrol-2-yl)-2-(5,6-dimethylthieno[2,3-d]pyrimidin-4-ylthio)ethanone]",< 5.00
20,"Cc1csc2ncnc(N3CCCCC3C)c12 (centres unmarked) [Example 190, 2-methyl-1-{5-methylthieno[2,3-d]pyrimidin-4-yl}piperidine]",< 5.00
21,"CCC(CO)Nc1ncnc2scc(C)c12 (centres unmarked) [Example 72, 2-({5-methylthieno[2,3-d]pyrimidin-4-yl}amino)butan-1-ol]",< 5.00
22,Cc1csc2ncnc(NCCc3ccc(F)cc3)c12 [Example 17],< 5.00
23,"Cc1csc2ncnc(NC3CCCC3)c12 [Example 65, N-cyclopentyl-5-methylthieno[2,3-d]pyrimidin-4-amine]",< 5.00

# The next lines start with the values.
row,pEC50,Structure (SMILES)
1,< 5.00,"CCOC(=O)CC(C)Nc1ncnc2scc(C)c12 (centres unmarked) [Example 110, ethyl 3-({5-methylthieno[2,3-d]pyrimidin-4-yl}amino)butanoate]"
2,< 5.00,"Cc1csc2ncnc(NCCc3ccc(S(N)(=O)=O)cc3)c12 [Example 173, 4-[2-({5-methylthieno[2,3-d]pyrimidin-4-yl}amino)ethyl]benzene-1-sulfonamide]"
3,< 5.00,Clc1ccccc1CCNc1ncnc2sc3c(c12)CCCC3 [Example 297]
4,< 5.00,"COc1ccc(CCNc2nc(C)nc3sc(C)c(C)c23)cc1OC [Example 296, N-(3,4-dimethoxyphenethyl)-2,5,6-trimethylthieno[2,3-d]pyrimidin-4-amine]"
5,< 5.00,"CCCCN(C)c1ncnc2scc(C)c12 [Example 187, N-butyl-N,5-dimethylthieno[2,3-d]pyrimidin-4-amine]"
6,< 5.00,"Cc1csc2ncnc(NCCOc3ccccc3)c12 [Example 122, 5-methyl-N-(2-phenoxyethyl)thieno[2,3-d]pyrimidin-4-amine]"
7,< 5.00,"Cc1csc2ncnc(N3CCC(Cc4ccccc4)CC3)c12 [Example 240, 4-benzyl-1-{5-methylthieno[2,3-d]pyrimidin-4-yl}piperidine]"
8,< 5.00,"CCC(C)CNc1ncnc2scc(C)c12 (centres unmarked) [Example 67, 5-methyl-N-(2-methylbutyl)thieno[2,3-d]pyrimidin-4-amine]"
9,< 5.00,"Cc1csc2ncnc(NCc3ccco3)c12 [Example 75, N-(furan-2-ylmethyl)-5-methylthieno[2,3-d]pyrimidin-4-amine]"
10,< 5.00,"Cc1csc2ncnc(NCCc3ccccc3F)c12 [Example 127, N-[2-(2-fluorophenyl)ethyl]-5-methylthieno[2,3-d]pyrimidin-4-amine]"
11,< 5.00,"c1ccc(CCNc2ncnc3sccc23)cc1 [Example 290, N-phenethylthieno[2,3-d]pyrimidin-4-amine]"
12,< 5.00,"Cc1csc2ncnc(NC(C)C(C)C)c12 (centres unmarked) [Example 68, 5-methyl-N-(3-methylbutan-2-yl)thieno[2,3-d]pyrimidin-4-amine]"
13,< 5.00,"Cc1csc2c(NCCc3ccc(Cl)cc3)ncnc12 [Example 295, N-(4-chlorophenethyl)-7-methylthieno[3,2-d]pyrimidin-4-amine]"
14,< 5.00,"Cc1csc2ncnc(N3CCC(N(C)C(=O)OC(C)(C)C)C3)c12 (centres unmarked) [Example 270, tert-butyl N-methyl-N-(1-{5-methylthieno[2,3-d]pyrimidin-4-yl}pyrrolidin-3-yl)carbamate]"
15,< 5.00,"Cc1ccc(N2CCN(c3ncnc4scc(C)c34)CC2)c(C)c1 [Example 258, 1-(2,4-dimethylphenyl)-4-{5-methylthieno[2,3-d]pyrimidin-4-yl}piperazine]"
16,< 5.00,"Cc1ccc([C@H](C)Nc2ncnc3scc(C)c23)cc1 [Example 114, 5-methyl-N-[(1S)-1-(4-methylphenyl)ethyl]thieno[2,3-d]pyrimidin-4-amine]"
17,< 5.00,"Cc1sc2ncnc(N3CCN(S(=O)(=O)c4ccc(C(C)(C)C)cc4)CC3)c2c1C [Example 310, 4-(4-(4-tert-butylphenylsulfonyl)piperazin-1-yl)-5,6-dimethylthieno[2,3-d]pyrimidine]"
18,< 5.00,"c1ccc(CC2CCN(c3ncnc4sccc34)CC2)cc1 [Example 302, 4-(4-benzylpiperidin-1-yl)thieno[2,3-d]pyrimidine]"
19,< 5.00,"Cc1csc2nccc(NCCc3ccc(Cl)cc3)c12 [Example 36, N-(4-chlorophenethyl)-3-methylthieno[2,3-b]pyridin-4-amine]"
20,< 5.00,"Cc1csc2ncnc(N3CCCCC3CCO)c12 (centres unmarked) [Example 215, 2-(1-{5-methylthieno[2,3-d]pyrimidin-4-yl}piperidin-2-yl)ethan-1-ol]"
